Experimental findings from patent US20240156790A1, “COMPOUNDS, COMPOSITIONS, AND METHODS FOR MODULATING FERROPTOSIS AND TREATING EXCITOTOXIC DISORDERS” (THE TRUSTEES OF COLUMBIA UNIVERSITY IN THE CITY OF NEW YORK, priority 2018, published 2024) are described below.

Data set [1] can be described thus: PHB4082 IP PK Study (plasma, brain, liver, kidney). Type of data set: in vivo, C57BL/6 mice. The protocol: C57BL/6 mice (8-weeks of age and ˜25 g weight) were weighed before injection and divided into groups of two male and female mice per cage. PHB4082 was dissolved in 5% DMSO/95% of 65% v/v of 25% w/v 2-hydroxypropyl-3-cyclodextrin (Cayman Chemical) dissolved in 20% EtOH, 30% v/v Poly(ethylene glycol)-400 (Sigma Aldrich 202398), 5% v/v Tween 80 (Fluka 59924) to create a 2 mg/mL Solution. The same formulation without PHB4082 was used as a vehicle control. The solution was sterilized using a […] Steriflip filter unit (Thomas Scientific 1189Q46) and stored at 4° C. Mice were dosed IP and euthanized by CO2 asphyxiation for 3 min at 0, 1, 2, 4, and 8 h after administration. To ensure that the vehicle was well-tolerated, four mice were treated with vehicle and euthanized 4 h after administration. ˜0.5 mL of blood was collected via cardiac puncture and immediately put in K3 EDTA microtubes ([…] 41.1504.105) and kept on ice. Organs were harvested, placed in Eppendorf tubes, and frozen on dry ice. Blood samples were centrifuged for 10 min at 2,100×g at 4° C., then plasma was transferred to a clean tube and frozen on dry ice. Organ samples were weighed and placed in hard tissue homogenizing tubes (Omni International 19-628) and a volume of DEPC-treated nuclease-free water (IBI Scientific IB42200) was added to make a 500 mg/mL solution and homogenized using the Omni Bead Ruptor 4 at speed 5 for 30 seconds. PHB4082 was extracted from plasma or organ homogenate by adding 900 μL acetonitrile to 100 μL plasma or organ homogenate. Samples were mixed by vortexing and allowed to extract overnight at 4° C. prior to mixing for at least 5 min by rotating at room temperature, vortexing, and sonicating for at least 30 second prior to centrifugation for 10 min at 4,000×g and 4° C. The supernatant was then transferred to a glass vial and dried under nitrogen. After drying, the samples were resuspended in 100 μL of methanol and analyzed by UPLC-MS described below. The concentration of PHB4082 was determined against a standard curve with a linear fit and the data plot in GraphPad Prism 9 and fit with a one phase decay.
To evaluate whether PHB4082 was a suitable candidate for in vivo studies, we performed a pharmacokinetic study of PHB4082 in C57BL/6 mice at ˜8 weeks of age. To evaluate sex-specific effects on compound metabolism, two male and two female mice were used for each condition. Mice were dosed at 20 mg/kg via intraperitoneal (IP) injection and the injection volume ranged from 180 uL to 300 uL based on different body weights. […] Extracts were analyzed via UPLC-MS and the concentration of compound determined against a standard curve ran concurrently with samples.

A short description of data set [2]: In vivo pharmacokinetic study of TH-4-55-2 in drinking water (four days). More on the design: species or system R6/2 mice. The conditions noted are these: both sexes, R6/2, mouse, brain, oral, 20-30 mg/kg/day, 4-day treatment, read-out: concentration in brain samples. How it is done:
TH-4-55-2 and 42 uM Citric acid were dissolved in 5% DMSO, 5% ethanol, and 90% PBS rendering a final concentration of 0.29 mg/mL Th-4-55-2 in drinking water. The mice drink ˜2 mL water per day, and the resulting dosage was around 20-30 mg/kg/day. C57BL/6 mice at ˜8 weeks of age were treated using drinking water daily for four days. 6 mice were randomly picked, weighed daily, the weight recorded, and the change in body weight compared to the baseline, pre-injection weight was calculated. Any mouse that lost more than 20% of its baseline body weight for three consecutive days was euthanized prior to the completion of the study. Mice were euthanized by CO2 asphyxiation for 3 min after administration. Approximately 0.5 mL of blood was collected via cardiac puncture and immediately put in K3 EDTA microtubes and kept on ice. Brains were harvested, placed in Eppendorf tubes, and frozen on dry ice. […]
Prior to LC-MS analysis, the samples were resuspended in 100 μL methanol and centrifuged for 5 minutes at 14,000×g at 4° C. The supernatant was analyzed via SYNAPT High Resolution Mass Spectrometer.
Samples from animal studies were analyzed via UPLC-MS using a Waters SYNAPT XS Mass spectrometer equipped with an Acquity UPLC. […] All samples were injected twice and the base peak chromatogram was integrated and quantified by a standard curve concurrently ran using MassLynx software and exported. […]

In the case of `Cc1noc(-c2ccc(NC3CCCCC3)c(NC3CCCCC3)c2)n1` [PHB4082, N1,N2-dicyclohexyl-4-(3-methyl-1,2,4-oxadiazol-5-yl)benzene-1,2-diamine], in data set [1] (20 mg/kg IP), the “accumulation in plasma and brain” value is recorded as about 100 nM. Further, the “tissue accumulation, in words” value in data set [1] (IP) is on record as “stably accumulates in mouse kidney with minimal accumulation observed in brain”. Further, the concentration in brain result in data set [1] (PK study of PHB4082) is “around 200 nM”. The same molecule came in with a concentration at 8 h in data set [1] (both sexes, C57BL/6, mouse, kidney, intraperitoneal, 20 mg/kg IP, at eight hours) of 1800 nM.

`CCC(CC)Nc1cc(-c2nc(C)no2)cnc1NC1CCCCC1` [TH-4-55-2, N^2-cyclohexyl-5-(3-methyl-1,2,4-oxadiazol-5-yl)-N^3-(pentan-3-yl)pyridine-2,3-diamine]: the concentration at 4 days in data set [2] is 1.5 to 33 µM.
